Experimental data as given in US20080161583A1, “Epimerization methodologies for recovering stereoisomers in high yield and purity” (priority 2006, published 2008).
≈ marks a conversion by molar mass, not a printed value.

Assay: Solubility of an epimer in a solvent at the epimerization temperature (saturated slurry, filtered sample, HPLC assay)
Assay type: physicochemical
Conditions: saturated slurry in denatured ethanol (2B-3), organic solvent or mixture, thermodynamic from solid
Protocol: The solubility of a first epimer in a solvent may be determined as follows. Sampling syringes and saturated slurry samples are pre-heated (or pre-chilled) to the desired epimerization temperature, e.g., 65 C or 70 C in some embodiments. The syringe is preheated (or pre-chilled) to the same temperature in a vessel containing only the solvent and the syringe. The syringes may be 5 ml disposable syringes. The saturated slurry samples are prepared by combining the solvent under investigation and enough of the purified first epimer to ensure that at least some precipitate is present so that the sample slurry is saturated. A purified epimer refers to an epimer having a purity of at least 85% by weight with respect to the total weight of epimers, preferably at least 90% by weight, more preferably at least 95% by weight. When both the sample and the syringe are at the desired temperature, 1.5 ml samples are quickly drawn into the syringe. The sampling syringes desirably acquire samples through a suitable filter to avoid bringing solids into the syringe. A 25 mm, 0.45 micron PTFE disk filter is suitable. 1 ml of each sample is blown down and then diluted in 10 ml of a solvent in which the epimer is fully soluble such as methanol. HPLC analysis is then performed to determine the amount of epimer in the diluted sample. […]

CC1(C)COC2(CC[C@H](CC(C(=O)O)c3ccc(S(C)(=O)=O)c(Cl)c3)C2)OC1 (some centres unmarked) [R,R epimer]
solubility (65 C): 23.2 mg/mL (≈ 53.9 mM)
solubility (70 C): 27.1 mg/mL (≈ 62.8 mM)
